{"source": "ChEMBL document CHEMBL1131645", "about": "“Synthesis and activity studies of N-[omega-N'-(adamant-1'-yl)aminoalkyl]- 2-(4'-dimethylaminophenyl)acetamides: in the search of selective inhibitors for the different molecular forms of acetylcholinesterase” (Bioorg Med Chem Lett, 1998)", "key": {"[1]": {"molecular_target": "Acetylcholinesterase (Torpedo californica) (UniProt P04058)", "sequence (P04058 22-564 limits assumed)": "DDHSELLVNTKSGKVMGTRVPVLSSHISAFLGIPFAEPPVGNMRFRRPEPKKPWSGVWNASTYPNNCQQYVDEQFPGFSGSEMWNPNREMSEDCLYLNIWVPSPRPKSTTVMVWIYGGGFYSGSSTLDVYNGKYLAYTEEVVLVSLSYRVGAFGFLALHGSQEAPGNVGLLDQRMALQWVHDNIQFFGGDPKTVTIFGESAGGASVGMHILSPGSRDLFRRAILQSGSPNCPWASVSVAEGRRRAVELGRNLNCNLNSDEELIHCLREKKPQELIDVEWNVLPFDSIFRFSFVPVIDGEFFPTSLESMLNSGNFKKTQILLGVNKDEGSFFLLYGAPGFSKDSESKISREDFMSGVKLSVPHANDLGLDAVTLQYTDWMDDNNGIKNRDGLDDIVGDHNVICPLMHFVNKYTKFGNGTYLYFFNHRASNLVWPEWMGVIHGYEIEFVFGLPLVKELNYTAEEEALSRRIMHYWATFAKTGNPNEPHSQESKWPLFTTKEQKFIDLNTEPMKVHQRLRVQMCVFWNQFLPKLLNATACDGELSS", "test": "Compound was evaluated for non-competitive inhibition constant of acetylcholinesterase (AChE) from Torpedo californica", "settings": "Tetronarce californica"}, "Acetylcholinesterase [2]": {"molecular_target": "T1, Acetylcholinesterase (Torpedo californica, UniProt P04058)", "T1 sequence (P04058 whole entry)": "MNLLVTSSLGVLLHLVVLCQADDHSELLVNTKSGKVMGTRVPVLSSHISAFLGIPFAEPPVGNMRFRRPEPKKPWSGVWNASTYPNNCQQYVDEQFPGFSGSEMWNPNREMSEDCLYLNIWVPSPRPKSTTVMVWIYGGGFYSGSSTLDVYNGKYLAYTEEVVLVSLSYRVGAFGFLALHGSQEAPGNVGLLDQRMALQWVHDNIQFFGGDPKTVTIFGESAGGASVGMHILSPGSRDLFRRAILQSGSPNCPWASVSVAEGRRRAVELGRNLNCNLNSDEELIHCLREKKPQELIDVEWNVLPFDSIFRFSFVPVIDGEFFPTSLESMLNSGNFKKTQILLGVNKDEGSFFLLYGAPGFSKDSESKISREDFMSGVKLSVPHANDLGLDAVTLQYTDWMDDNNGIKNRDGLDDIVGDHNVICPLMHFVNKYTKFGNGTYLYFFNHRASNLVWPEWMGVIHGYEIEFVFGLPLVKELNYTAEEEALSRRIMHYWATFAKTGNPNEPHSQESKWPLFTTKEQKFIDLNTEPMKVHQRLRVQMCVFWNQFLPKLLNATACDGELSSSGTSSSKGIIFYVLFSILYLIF", "test": "Compound was evaluated for competitive inhibition constant of acetylcholinesterase (AChE) from Torpedo californica", "set-up": "species or system Tetronarce californica"}, "Acetylcholinesterase [3]": {"molecular_target": "Acetylcholinesterase (Homo sapiens, UniProt P22303)", "sequence (P22303 whole entry)": "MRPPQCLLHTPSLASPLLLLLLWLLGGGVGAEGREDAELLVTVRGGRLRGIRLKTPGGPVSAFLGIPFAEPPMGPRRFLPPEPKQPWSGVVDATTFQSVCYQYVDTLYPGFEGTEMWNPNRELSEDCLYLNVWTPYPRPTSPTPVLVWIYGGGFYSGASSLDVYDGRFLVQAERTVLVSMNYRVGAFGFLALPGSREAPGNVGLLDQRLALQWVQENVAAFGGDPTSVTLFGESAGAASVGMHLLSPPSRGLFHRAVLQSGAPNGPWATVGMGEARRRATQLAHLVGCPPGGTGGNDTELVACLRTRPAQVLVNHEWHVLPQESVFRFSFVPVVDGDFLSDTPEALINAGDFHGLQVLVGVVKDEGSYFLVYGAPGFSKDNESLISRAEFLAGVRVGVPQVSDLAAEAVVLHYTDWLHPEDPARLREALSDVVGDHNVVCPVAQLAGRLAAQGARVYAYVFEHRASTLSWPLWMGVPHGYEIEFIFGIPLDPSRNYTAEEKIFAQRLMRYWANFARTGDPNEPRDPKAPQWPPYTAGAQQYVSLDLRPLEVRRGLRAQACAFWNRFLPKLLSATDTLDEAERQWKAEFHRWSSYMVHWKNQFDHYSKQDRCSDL", "description": "Compound was evaluated for the inhibition of acetylcholinesterase (AChE) in human erythrocytes"}, "Acetylcholinesterase [4]": {"molecular_target": "T1, Acetylcholinesterase", "test": "Compound was evaluated for the inhibition of acetylcholinesterase in Torpedo californica", "set-up": "species or system Tetronarce californica"}, "Acetylcholinesterase [5]": {"molecular_target": "T2, Acetylcholinesterase (Bos taurus, UniProt P23795)", "T2 sequence (P23795 whole entry)": "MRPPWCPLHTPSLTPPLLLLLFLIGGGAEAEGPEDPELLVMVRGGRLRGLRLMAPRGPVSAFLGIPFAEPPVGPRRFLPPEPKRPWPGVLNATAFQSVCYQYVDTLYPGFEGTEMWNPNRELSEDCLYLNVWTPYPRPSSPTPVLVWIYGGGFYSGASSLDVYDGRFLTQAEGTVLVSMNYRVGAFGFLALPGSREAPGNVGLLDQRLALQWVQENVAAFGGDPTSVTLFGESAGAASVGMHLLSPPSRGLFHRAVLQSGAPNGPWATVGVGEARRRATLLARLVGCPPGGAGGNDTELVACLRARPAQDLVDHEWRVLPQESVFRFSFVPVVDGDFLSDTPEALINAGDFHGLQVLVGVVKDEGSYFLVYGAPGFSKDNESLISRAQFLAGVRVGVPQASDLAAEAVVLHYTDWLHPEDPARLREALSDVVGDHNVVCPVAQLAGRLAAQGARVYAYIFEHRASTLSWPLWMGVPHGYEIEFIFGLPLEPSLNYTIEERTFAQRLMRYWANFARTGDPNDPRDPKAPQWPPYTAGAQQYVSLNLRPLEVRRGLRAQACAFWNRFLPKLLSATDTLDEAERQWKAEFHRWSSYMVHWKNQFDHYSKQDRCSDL", "description": "Compound was evaluated for the inhibition of acetylcholinesterase (AChE) in bovine brain"}, "Acetylcholinesterase [6]": {"molecular_target": "T2, Acetylcholinesterase", "remark": "listed apart in the source"}, "Acetylcholinesterase [7]": {"molecular_target": "T3, Acetylcholinesterase (Electrophorus electricus, UniProt O42275)", "T3 sequence (O42275 whole entry)": "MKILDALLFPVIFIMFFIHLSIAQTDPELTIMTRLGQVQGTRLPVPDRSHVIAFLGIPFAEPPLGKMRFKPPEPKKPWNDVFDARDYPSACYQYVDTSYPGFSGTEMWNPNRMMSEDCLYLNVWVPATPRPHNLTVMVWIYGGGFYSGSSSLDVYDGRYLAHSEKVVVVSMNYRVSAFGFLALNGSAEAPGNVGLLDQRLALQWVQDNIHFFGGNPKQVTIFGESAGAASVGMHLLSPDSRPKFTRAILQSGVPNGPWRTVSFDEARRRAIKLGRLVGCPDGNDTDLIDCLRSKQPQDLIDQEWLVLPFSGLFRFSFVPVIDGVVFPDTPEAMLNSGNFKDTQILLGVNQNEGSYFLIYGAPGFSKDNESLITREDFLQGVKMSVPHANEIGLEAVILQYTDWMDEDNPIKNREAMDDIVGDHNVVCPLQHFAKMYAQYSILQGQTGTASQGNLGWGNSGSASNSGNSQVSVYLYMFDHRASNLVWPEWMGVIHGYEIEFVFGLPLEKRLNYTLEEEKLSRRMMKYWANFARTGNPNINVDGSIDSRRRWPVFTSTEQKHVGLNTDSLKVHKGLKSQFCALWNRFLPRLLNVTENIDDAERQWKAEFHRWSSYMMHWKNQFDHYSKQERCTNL", "test": "Compound was evaluated for the inhibition of acetylcholinesterase in electric eel"}, "Acetylcholinesterase [8]": {"molecular_target": "T2, Acetylcholinesterase", "test": "Compound was evaluated for the inhibition of acetylcholinesterase (AChE) in bovine erythrocytes", "format": "cell-based"}, "Acetylcholinesterase [9]": {"molecular_target": "T3, Acetylcholinesterase", "description": "Compound was evaluated for the inhibition of acetylcholinesterase (AChE) in electric eel"}, "Acetylcholinesterase [10]": {"molecular_target": "T1, Acetylcholinesterase", "description": "Compound was evaluated for the inhibition of acetylcholinesterase (AChE) in Torpedo californica"}}, "data": [{"compound": "CN(C)c1ccc(CC(=O)NCCCCCCCCCNC23CC4CC(CC(C4)C2)C3)cc1", "values": [{"measurement": "KI'", "setting": "[1]", "result": 7, "unit": "µM"}, {"measurement": "Ki", "setting": "Acetylcholinesterase [2]", "result": 3.4, "unit": "µM"}]}, {"compound": "CN(C)c1ccc(CC(=O)NCCCCCCCCCCNC23CC4CC(CC(C4)C2)C3)cc1", "values": [{"measurement": "KI'", "setting": "[1]", "result": 5.3, "unit": "µM"}, {"measurement": "IC50", "setting": "Acetylcholinesterase [3]", "result": "> 100", "unit": "µM"}, {"measurement": "Ki", "setting": "Acetylcholinesterase [2]", "result": 2.5, "unit": "µM"}, {"measurement": "IC50", "setting": "Acetylcholinesterase [4]", "result": 5.3, "unit": "µM"}, {"measurement": "IC50", "setting": "Acetylcholinesterase [5]", "result": 77, "unit": "µM"}, {"measurement": "IC50", "setting": "Acetylcholinesterase [6]", "result": 95, "unit": "µM"}, {"measurement": "IC50", "setting": "Acetylcholinesterase [7]", "result": 14, "unit": "µM"}]}, {"compound": "CN(C)c1ccc(CC(=O)NCCCCCCCNC23CC4CC(CC(C4)C2)C3)cc1", "values": [{"measurement": "KI'", "setting": "[1]", "result": 13, "unit": "µM"}, {"measurement": "Ki", "setting": "Acetylcholinesterase [2]", "result": 7, "unit": "µM"}]}, {"compound": "CN(C)c1ccc(CC(=O)NCCCCCCCCNC23CC4CC(CC(C4)C2)C3)cc1", "values": [{"measurement": "KI'", "setting": "[1]", "result": 10, "unit": "µM"}, {"measurement": "IC50", "setting": "Acetylcholinesterase [3]", "result": "> 100", "unit": "µM"}, {"measurement": "Ki", "setting": "Acetylcholinesterase [2]", "result": 5.5, "unit": "µM"}, {"measurement": "IC50", "setting": "Acetylcholinesterase [4]", "result": 10, "unit": "µM"}, {"measurement": "IC50", "setting": "Acetylcholinesterase [5]", "result": "> 100", "unit": "µM"}, {"measurement": "IC50", "setting": "Acetylcholinesterase [8]", "result": "> 100", "unit": "µM"}, {"measurement": "IC50", "setting": "Acetylcholinesterase [9]", "result": 28, "unit": "µM"}]}, {"compound": "CN(C)c1ccc(CC(=O)NCCCCCCCCCCCNC23CC4CC(CC(C4)C2)C3)cc1", "values": [{"measurement": "KI'", "setting": "[1]", "result": 5.2, "unit": "µM"}, {"measurement": "Ki", "setting": "Acetylcholinesterase [2]", "result": 2.1, "unit": "µM"}]}, {"compound": "CN(C)c1ccc(CC(=O)NCCCCCCCCCCCCNC23CC4CC(CC(C4)C2)C3)cc1", "values": [{"measurement": "KI'", "setting": "[1]", "result": 4.1, "unit": "µM"}, {"measurement": "IC50", "setting": "Acetylcholinesterase [3]", "result": "> 100", "unit": "µM"}, {"measurement": "Ki", "setting": "Acetylcholinesterase [2]", "result": 1.8, "unit": "µM"}, {"measurement": "IC50", "setting": "Acetylcholinesterase [10]", "result": 3.3, "unit": "µM"}, {"measurement": "IC50", "setting": "Acetylcholinesterase [5]", "result": 20, "unit": "µM"}, {"measurement": "IC50", "setting": "Acetylcholinesterase [6]", "result": 19, "unit": "µM"}, {"measurement": "IC50", "setting": "Acetylcholinesterase [9]", "result": 8.9, "unit": "µM"}]}]}
